The structures appear in SMILES notation.

Regarding `Cc1ccc2sc3c(=O)n(C)c(=O)c=3sc2c1`, the melting point lay within 171 to 176 °C.

As usually defined, the melting point is the temperature of the solid-liquid transition.

Source of the values: patent publication US9137997B2 (priority 2011, dated 2015).
